Test results published in ChEMBL document CHEMBL3885881, “DrugMatrix”.

Species on record: Rattus norvegicus
Assay: DrugMatrix - Regimen: Daily Repeat
Type: toxicity, organism-based, Sprague-Dawley
Design: regimen Daily Repeat, gender Male, age 6-8 weeks
Conditions: in vivo, po, route oral GAVAGE, vehicle 100 % WATER; for TOTAL PROTEIN / ALANINE AMINOTRANSFERASE / ALBUMIN / ALKALINE PHOSPHATASE / ASPARTATE AMINOTRANSFERASE / BLOOD UREA NITROGEN / CHLORIDE / CHOLESTEROL / CREATINE PHOSPHOKINASE / CREATININE / GLUCOSE / PHOSPHORUS / POTASSIUM / SODIUM / TOTAL BILIRUBIN: tissue Plasma; for BASOPHIL / EOSINOPHIL / ERYTHROCYTE COUNT / HEMATOCRIT / HEMOGLOBIN / LEUKOCYTE COUNT / LYMPHOCYTE / MEAN CORPUSCULAR HEMOGLOBIN / MEAN CORPUSCULAR HEMOGLOBIN CONCENTRATION / MEAN CORPUSCULAR VOLUME / MONOCYTE / NEUTROPHIL / PLATELET COUNT: tissue Blood
[1] = 53.5 mg/kg, 120 h, dose level Low, time 5 day
[2] = 535 mg/kg, 72 h, dose level High, time 3 day
[3] = 535 mg/kg, 120 h, dose level High, time 5 day

CN1C(=O)OC(C)(C)C1=O [TRIMETHADIONE]
TOTAL PROTEIN (53.5 mg/kg, 72 h, dose level Low, time 3 day): 6.65 G/DL | BASOPHIL [1]: 0% | EOSINOPHIL [1]: 0% | ERYTHROCYTE COUNT [1]: 6.06 x10E6/uL | HEMATOCRIT [1]: 36.17% | HEMOGLOBIN [1]: 14.4 G/DL | LEUKOCYTE COUNT [1]: 18.23 x10E3/uL | LYMPHOCYTE [1]: 83.33% | MEAN CORPUSCULAR HEMOGLOBIN [1]: 23.8 pg | MEAN CORPUSCULAR HEMOGLOBIN CONCENTRATION [1]: 39.83 G/DL | MEAN CORPUSCULAR VOLUME [1]: 59.7 fL | MONOCYTE [1]: 2.33% | NEUTROPHIL [1]: 14.33% | PLATELET COUNT [1]: 1288 x10E3/uL | ALANINE AMINOTRANSFERASE [1]: 36.67 u/L | ALBUMIN [1]: 3.57 G/DL | ALKALINE PHOSPHATASE [1]: 314 u/L | ASPARTATE AMINOTRANSFERASE [1]: 59 u/L | BLOOD UREA NITROGEN [1]: 12 mg/dL | CHLORIDE [1]: 102.33 MEQ/L | CHOLESTEROL [1]: 70.67 mg/dL | CREATINE PHOSPHOKINASE [1]: 109.33 u/L | CREATININE [1]: 0.6 mg/dL | GLUCOSE [1]: 190.67 mg/dL | PHOSPHORUS [1]: 13.13 mg/dL | POTASSIUM [1]: 6.6 MEQ/L | SODIUM [1]: 151.33 MEQ/L | TOTAL BILIRUBIN [1]: 0.3 mg/dL | TOTAL PROTEIN [1]: 6.5 G/DL | BASOPHIL [2]: 0% | EOSINOPHIL [2]: 0% | ERYTHROCYTE COUNT [2]: 6.23 x10E6/uL | HEMATOCRIT [2]: 37.4% | HEMOGLOBIN [2]: 14.63 G/DL | LEUKOCYTE COUNT [2]: 13.2 x10E3/uL | LYMPHOCYTE [2]: 82.67% | MEAN CORPUSCULAR HEMOGLOBIN [2]: 23.5 pg | MEAN CORPUSCULAR HEMOGLOBIN CONCENTRATION [2]: 39.13 G/DL | MEAN CORPUSCULAR VOLUME [2]: 60 fL | MONOCYTE [2]: 5.67% | NEUTROPHIL [2]: 11.67% | PLATELET COUNT [2]: 1178.33 x10E3/uL | ALANINE AMINOTRANSFERASE [2]: 42.67 u/L | ALBUMIN [2]: 3.63 G/DL | ALKALINE PHOSPHATASE [2]: 285 u/L | ASPARTATE AMINOTRANSFERASE [2]: 71 u/L | BLOOD UREA NITROGEN [2]: 12.67 mg/dL | CHLORIDE [2]: 98.33 MEQ/L | CHOLESTEROL [2]: 72 mg/dL | CREATINE PHOSPHOKINASE [2]: 136.33 u/L | CREATININE [2]: 0.57 mg/dL | GLUCOSE [2]: 181.33 mg/dL | PHOSPHORUS [2]: 12.93 mg/dL | POTASSIUM [2]: 6.83 MEQ/L | SODIUM [2]: 152 MEQ/L | TOTAL BILIRUBIN [2]: 0.27 mg/dL | BASOPHIL [3]: 0% | EOSINOPHIL [3]: 0.33% | ERYTHROCYTE COUNT [3]: 5.77 x10E6/uL | HEMATOCRIT [3]: 33.97% | HEMOGLOBIN [3]: 13.13 G/DL | LEUKOCYTE COUNT [3]: 10.67 x10E3/uL | LYMPHOCYTE [3]: 78.67% | MEAN CORPUSCULAR HEMOGLOBIN [3]: 22.8 pg | MEAN CORPUSCULAR HEMOGLOBIN CONCENTRATION [3]: 38.67 G/DL | MEAN CORPUSCULAR VOLUME [3]: 58.97 fL | MONOCYTE [3]: 2.67% | NEUTROPHIL [3]: 18.33% | PLATELET COUNT [3]: 1123.33 x10E3/uL | ALANINE AMINOTRANSFERASE [3]: 42 u/L | ALBUMIN [3]: 3.67 G/DL | ALKALINE PHOSPHATASE [3]: 272.33 u/L | ASPARTATE AMINOTRANSFERASE [3]: 78.33 u/L | BLOOD UREA NITROGEN [3]: 14.67 mg/dL | CHLORIDE [3]: 99.33 MEQ/L | CHOLESTEROL [3]: 74.33 mg/dL | CREATINE PHOSPHOKINASE [3]: 143.67 u/L | CREATININE [3]: 0.57 mg/dL | GLUCOSE [3]: 180.33 mg/dL | PHOSPHORUS [3]: 13.1 mg/dL | POTASSIUM [3]: 6.6 MEQ/L | SODIUM [3]: 153.33 MEQ/L | TOTAL BILIRUBIN [3]: 0.27 mg/dL | TOTAL PROTEIN [3]: 6.53 G/DL
